According to US11413261B2, “Pharmaceutical composition for treating cancer comprising lactate metal salt” (METIMEDI PHARMACEUTICALS CO., LTD, priority 2014, dated 2022):

Tests used:
cancer cell = assay: Dissociation of metal lactate salts to lactate in a cancer cell; type: cell-based
[1] = test system: human breast cancer cell line (MCF-7); assay: Colony-forming ability, anticancer drug in combination with calcium lactate (6-well plates); type: cell-based; conditions: 2.5 mM calcium lactate alone, vs control
Description: Human breast cancer cell line (MCF-7) and a human lung cancer cell line (A549) with the cell number of 1×10^3 cells were seeded into an RPMI1640 medium in each of 6-well plates. […] Then, the colony-forming abilities of the cells were compared. In this case, a human breast cancer cell line (MCF-7) and a human lung cancer cell line (A549) untreated with any drug were used as control groups (FIGS. 42a, 42b, 43a and 43b).
Human breast cancer cell line (MCF-7) with the cell number of 1×10^3 cells were seeded into an RPMI1640 medium in each of 6-well plates. After one day, the medium was replaced with fresh medium and the cells were treated with 2.5 mM calcium lactate or 2 μM, 4 μM, and 8 μM Lapatinib alone or treated with various concentrations (2 μM, 4 μM, and 8 μM) of Lapatinib in combination with 2.5 mM calcium lactate. Then, the colony-forming abilities of the cells were compared. In this case, a human breast cancer cell line (MCF-7) untreated with any drug was used as a control group (FIGS. 52a and 52b).

[2] = test system: HIF-1α (hypoxia inducible factor 1α); assay: HIF-1α protein expression (Western blot); type: cell-based, human; conditions: HCT-116 and HT-29, hypoxia condition
Description: Human colorectal cancer cell lines (HCT-116 and HT-29) were cultured for 24 hours, under normoxia or hypoxia condition either treated or not treated with 2.5 mM calcium lactate. Then, a Western blot using an anti-HIF-1α antibody was conducted to each of the cultured cancer cell lines (upper part of FIG. 15).
Then, the human colorectal cancer cell lines (HCT-116 and HT-29) were treated with various concentrations (0.5 mM, 1.5 mM and 2.5 mM) of the calcium lactate under hypoxia condition and cultured and change in expression levels of HIF-1α in a nucleus of a cancer cell was measured (lower part of FIG. 15).

VEGF = VEGF expression in tumor tissues of animal model; type: in vivo, Balb/c mice; conditions: HT-29 tumor tissue
Description: A colorectal cancer cell (HT-29) cultured in an RPMI1640 medium and then diluted with PBS was subcutaneously implanted into the flank of Balb/c mice. The mice were bred until the colorectal cancer cell grew to about 5 mm. Then, four groups were set up; a control group untreated with calcium lactate for 30 days, an experimental group 1 (peroral, P.O.) administered with 2.5 mM calcium lactate by oral administration, an experimental group 2 (intra tumor, I.T) injected with 2.5 mM calcium lactate around tumor, and an experimental group 3 (subcutaneous, S.C) subcutaneously injected with 25 mM calcium lactate (FIG. 27).
(§1) Colorectal cancer tissues were extracted from the mice of the control group or the experimental group 1 set up in Example 10-1, and expression levels of HIF-1α and VEGF involved in metastasis, invasion, and angiogenesis of tumor expressed therein were compared (FIG. 29). In this case, GAPDH was used as internal control groups.
as §1, with “group 2” for “group 1”, “tumor” for “tumor expressed”, “(FIG. 31).” for “(FIG. 29).”

[3] = test system: human colorectal cancer cell line (HT-29); assay: Colony-forming ability, anticancer drug in combination with calcium lactate (6-well plates); type: cell-based; conditions: 2.5 mM calcium lactate alone, vs control
Description: (§2) Human colorectal cancer cell line (HT-29) with the cell number of 1×10^3 cells were seeded into an RPMI1640 medium in each of 6-well plates. […]. Then, the colony-forming abilities of the cells were compared. In this case, a human colorectal cancer cell line (HT-29) untreated with any drug was used as a control group (FIGS. 46a and 46b).
as §2, with “48a” for “46a”, “48b).” for “46b).”
as §2, with “(FIG. 55).” for “(FIGS. 46a and 46b).”

[4] = test system: human colorectal cancer cell lines (HCT-116 and HT-29); assay: Pyruvate level in cancer cells (pyruvate assay kit); type: cell-based; conditions: 2.5 mM, 24 hours
Description: Each of human colorectal cancer cell lines (HCT-116 and HT-29) with the cell number of 5×10^5 cells was treated with 2.5 mM calcium lactate for 24 hours and the cells were disrupted by ultrasonication and filtered using a 10 kDa filter so as to obtain filtrate. The obtained filtrate was applied to a pyruvate assay kit (Abcam, Cambridge, Mass.) to measure the concentration of pyruvate included in the filtrate (FIG. 12).

[5] = test system: colorectal cancer cell (HT-29 or HCT-116); assay: Tumor volume in animal model treated with radiation and calcium lactate; type: in vivo, mice
Description: A colorectal cancer cell (HT-29 or HCT-116) was subcutaneously implanted into the flank of mice. The mice were bred until the colorectal cancer cell grew to about 5 mm. Then, four groups were set up; a control group untreated with calcium lactate for 30 days, an experimental group 11 (intra tumor, I.T) injected with 2.5 mM calcium lactate, an experimental group 12 (IR) irradiated with radiation of 2 Gy five times using an X-RAD 320 X-ray irradiator (300 kVp) equipped with a 2.0 mm aluminum filter, and an experimental group 13 (CaLa+IR) irradiated with radiation of 2 Gy five times and injected with 2.5 mM calcium lactate at the same time (FIG. 36).
The volumes of colorectal cancer tissues extracted from the mice of the control group or each of the experimental groups set up in Example 11-1 were measured over time and compared with each other (FIGS. 37a and 37b).

[6] = test system: human kidney cancer cell line (Caki-1); assay: Colony-forming ability, anticancer drug in combination with calcium lactate (6-well plates); type: cell-based; conditions: 2.5 mM calcium lactate alone, vs control
Description: Human kidney cancer cell line (Caki-1) with the cell number of 1×10^3 cells were seeded into an RPMI1640 medium in each of 6-well plates. After one day, the medium was replaced with fresh medium and the cells were treated with 0.3 nM, 0.5 nM, and 1 nM Everolimus alone or treated with various concentrations (0.3 nM, 0.5 nM, and 1 nM) of Everolimus in combination with 2.5 mM calcium lactate. Then, the colony-forming abilities of the cells were compared. In this case, a human kidney cancer cell line (Caki-1) untreated with any drug was used as a control group (FIGS. 53a and 53b).

CC(O)C(=O)[O-].CC(O)C(=O)[O-].[Ca+2] (centres unmarked) [calcium lactate]
dissociation to lactate in a cancer cell (cancer cell): can be dissociated to lactate
colony-forming ability [1]: suppressed
protein expression levels of HIF-1α ([2]; 2.5 mM, 24 hours): not expressed
expression levels of HIF-1α in a nucleus of a cancer cell ([2]; 0.5, 1.5, 2.5 mM): suppresses the expression levels of HIF-1α concentration dependently
expression of VEGF (VEGF; experimental group 1, 2.5 mM oral administration): inhibited
expression of VEGF (VEGF; experimental group 2, 2.5 mM injected around tumor): inhibited
colony-forming ability [3]: suppressed
pyruvate levels in the cells [4]: sharply increased
growth of tumor ([5]; 2.5 mM calcium lactate I.T. individually, vs control): inhibited
growth of tumor ([5]; 2.5 mM calcium lactate in combination with radiation of 2 Gy five times): inhibited to the lowest level
colony-forming ability [6]: suppressed
